EC50 data for eight compounds are collected here from patent publication US7138527B2, “Indole derivatives useful for the treatment of diseases” (Pfizer Inc., priority 2002, dated 2006).

pEC50: −log10 of the molar value.

The test has as its target T1, human β2 adrenergic receptor (Homo sapiens, UniProt P07550).
T1 construct: expressed in transfected cells; host or cells: CHO (Chinese Hamster Ovary) cells, CHOhβ2
As to the kind of experiment: Cell based cAMP assay in CHO cells recombinantly expressing the human β2 adrenergic receptor (cAMP-Flashplate). Conditions: CHOhβ2 cells, 1 hour incubation. Here is the method: According to another alternative, the agonist potency for the […] of the indole derivatives of the formula (1) may also be determined by the measure of the concentration of compound according to the present invention required to produce half maximal effect (EC50) for the β2 receptor.
10 mM/100% DMSO (dimethylsulfoxide) stock of compound is diluted to required top dose in 4% DMSO. This top dose is used to construct a 10-point semi-log dilution curve, all in 4% DMSO. […] Data was expressed as % Isoprenaline response.
Cells were seeded to give about 90% confluency for testing.
25 μl/well each dose of compound was transferred into a cAMP-Flashplate® (NEN, SMP004B), with 1% DMSO as basal controls and 100 nM Isoprenaline as max controls. This was diluted 1:2 by the addition of 25 μl/well PBS. […] Compounds were incubated with 50 μl/well cells for 1 hour. […] Dose-response data was expressed as % Isoprenaline activity and fitted using a four parameter sigmoid fit.
Background: Changes in cAMP serve as a functional read-out for many G protein-coupled receptors.

T1 sequence (P07550 whole entry): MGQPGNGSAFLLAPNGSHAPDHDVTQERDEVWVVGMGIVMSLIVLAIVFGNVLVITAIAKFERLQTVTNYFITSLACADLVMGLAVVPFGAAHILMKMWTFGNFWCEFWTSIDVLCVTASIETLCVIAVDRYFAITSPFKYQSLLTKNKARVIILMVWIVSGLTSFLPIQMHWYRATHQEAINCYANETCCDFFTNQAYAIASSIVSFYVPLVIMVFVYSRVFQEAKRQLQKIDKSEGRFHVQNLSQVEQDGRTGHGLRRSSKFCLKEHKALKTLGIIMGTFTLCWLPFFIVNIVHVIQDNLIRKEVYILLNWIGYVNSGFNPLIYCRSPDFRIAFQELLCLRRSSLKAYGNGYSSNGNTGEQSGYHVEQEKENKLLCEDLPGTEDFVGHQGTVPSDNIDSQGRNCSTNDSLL

As for `COc1ccccc1CNC(=O)c1cc2cc(C[C@@H](C)NC[C@H](O)c3ccc(O)c(CO)c3)ccc2[nH]1` [Example 1, 5-[(2R)-2-({(2R)-2-hydroxy-2-[4-hydroxy-3-(hydroxymethyl)phenyl]ethyl}amino)propyl]-N-(2-methoxybenzyl)-1H-indole-2-carboxamide], the pEC50 was 10.70.

Turning to `C[C@H](Cc1ccc2[nH]c(C(=O)NCc3ccc(C(F)(F)F)cc3)cc2c1)NC[C@H](O)c1ccc(O)c(CO)c1` [Example 2, 5-[(2R)-2-({(2R)-2-hydroxy-2-[4-hydroxy-3-(hydroxymethyl)phenyl]ethyl}amino)propyl]-N-[4-(trifluoromethyl)benzyl]-1H-indole-2-carboxamide], the pEC50 was 9.10.

For `COc1cccc(OC)c1CNC(=O)c1cc2cc(C[C@@H](C)NC[C@H](O)c3ccc(O)c(CO)c3)ccc2[nH]1` [Example 3, N-(2,6-dimethoxybenzyl)-5-[(2R)-2-({(2R)-2-hydroxy-2-[4-hydroxy-3-(hydroxymethyl)phenyl]ethyl}amino)propyl]-1H-indole-2-carboxamide], the pEC50 is 10.30.

Turning to `COc1cccc(CNC(=O)c2cc3cc(C[C@@H](C)NC[C@H](O)c4ccc(O)c(CO)c4)ccc3[nH]2)c1` [Example 4, 5-[(2R)-2-({(2R)-2-hydroxy-2-[4-hydroxy-3-(hydroxymethyl)phenyl]ethyl}amino)propyl]-N-(3-methoxybenzyl)-1H-indole-2-carboxamide], the pEC50 is 9.92.

In the case of `COc1cc(O)cc(OC)c1CNC(=O)c1cc2cc(C[C@@H](C)NC[C@H](O)c3ccc(O)c(CO)c3)ccc2[nH]1` [Example 9, 5-[(2R)-2-({(2R)-2-Hydroxy-2-(4-hydroxy-3-hydroxymethylphenyl)ethyl]amino)propyl]-N-(4-hydroxy-2,6-dimethoxybenzyl)-1H-indole-2-carboxamide], the pEC50 was 10.70.

`C[C@H](Cc1ccc2[nH]c(C(=O)N(C)Cc3ccccc3)cc2c1)NC[C@H](O)c1ccc(O)c(CO)c1` [Example 22, 5-[(2R)-2-({(2R)-2-Hydroxy-2-(4-hydroxy-3-hydroxymethylphenyl)ethyl}amino)propyl}-N-benzyl-N-methyl-1H-indole-2-carboxamide]: the pEC50 was 10.70.

In the case of `CCn1c(C(=O)NCc2ccc(Cl)cc2)cc2cc(C[C@@H](C)NC[C@H](O)c3ccc(O)c(CO)c3)ccc21` [Example 29, 1-Ethyl-5-[(2R)-2-({(2R)-2-hydroxy-2-(4-hydroxy-3-hydroxymethylphenyl)ethyl}amino)propyl}-N-(4-chlorobenzyl)-1H-indole-2-carboxamide], the pEC50 is 8.40.

As to `CC[C@H](Cc1ccc2[nH]c(C(=O)NCc3ccccc3)cc2c1)NC[C@H](O)c1ccc(O)c(CO)c1` [Example 36, 5-[(2R)-2-({(2R)-2-Hydroxy-2-(4-hydroxy-3-hydroxymethylphenyl)ethyl]amino)butyl}-N-benzyl-1H-indole-2-carboxamide], the negative-log EC50 (pEC50) was 9.42.

As a reminder, the pEC50 is the negative decadic logarithm of the EC50, by convention in mol/L.
